Where no end group is shown, it is not given here. [ ]: non-standard residue; d: D form. Hyp = O=C(O)[C@@H]1C[C@@H](O)CN1

One assay relates to HIV-1IIIB. Description: HIV-1 antiviral assay in CEM-SS cells (MTS readout). As to conditions: positive controls.
The test system of a further assay is HCMV strain AD169. Briefly: HCMV plaque formation assay in MRC-5 cells. As to conditions: for inhibition of HCMV plaque formation compared to virus control: 10 micrograms per ml, 7-10 days.
The next assay has as its system Interleukin-4 (IL-4). Description: Th1/Th2 cytokine profiling assay, IL-4. The note with it: 10 micrograms per ml; Ovalbumin-restimulated Balb/c spleen cells, 72 hours. In kind it is cell-based, mouse. From the text: (§1) The Balb/c mice (originated in 1923, it is a popular strain and is used in many different research disciplines. Also classified as an inbred from the production of 20 or more successive brother-sister matings, the Balb/c mouse is albino and small in size) were immunized on Days 1, 15, and 29 with Ovalbumin (Ovalbumin is the main protein found in egg white, commonly used to stimulate an immunological reaction in test animals) in PBS (5 micrograms/injection). On day 50, spleens of the mice were harvested (3 weeks after last boost with Ovalbumin). […] Thereafter, additional Ovalbumin was added to the cells at 10 micrograms/ml for in vitro restimulation of the cells. 72 hours later, cell supernatants were harvested and assayed using the Becton Dickinson Mouse Th1/Th2 Cytokine CBA Kit. This kit can be used to measure Interleukin-2 (IL-2), Interleukin-4 (IL-4), Interleukin-5 (IL-5), Interferon-γ (IFN-γ), and Tumor Necrosis Factor-α (TNF-α) protein levels in a single sample. The kit performance has been optimized for analysis of physiologically relevant concentrations ([…] levels) of specific cytokine proteins in tissue culture supernatants and serum samples.

Assay [1] deals with Tumor Necrosis Factor-α (TNF-α). Description: Th1/Th2 cytokine profiling assay, TNF-α. The note with it: 10 micrograms per ml; Ovalbumin-restimulated Balb/c spleen cells, 72 hours. Type of assay: cell-based, mouse.
Text: as §1

For assay [2], the system named is Primary Human endothelial cells (HUVEC). Briefly: Endothelial cell migration assay. Type of assay: cell-based. As to conditions: 10 micrograms per ml, 22 hours. The procedure:
Endothelial cell migration is a prerequisite for the process of neo-vascularization or angiogenesis which is crucial for on-site recruitment of blood vessel formation. Primary Human endothelial cells (HUVEC) were seeded in insert chambers with 3 micrometer pore size of multi-transwell plate for 6 hours at 37° C. in Endothelial Cell Basal Medium (EBM) supplemented with 0.1% bovine serum albumin. Thereafter, designated concentration of testing peptides—10 micrograms per ml—was added in duplicate wells. The endothelia were allowed to migrate for 22 hours at 37° C., then, migrated cells were fixed and stained with Hoechst 33342 dye. Images of 3 fields per insert were taken and the number of migrated cells per field were quantified using the ImageProPlus software. Data were analyzed for the average number of the migrated cells and standard deviation of six data points for each treatment condition. Active test peptides against HUVEC migration was determined based on 50% inhibition of migrated cells as compared with the control. Statistic p values were computed using the Student's t-test.

For a further assay, the system named is Interleukin-5 (IL-5). Description: Th1/Th2 cytokine profiling assay, IL-5. In kind it is cell-based, mouse. As to conditions: 10 micrograms per ml; Ovalbumin-restimulated Balb/c spleen cells, 72 hours.
Text: as §1

Assay [3] deals with Human Peripheral Blood Mononuclear Cells (PBMC), B cell proliferation. Briefly: B cell proliferation assay (SAC plus Interleukin-2 stimulated PBMC, 3H-thymidine). As to conditions: 10 micrograms per ml; SAC plus IL-2 stimulated PBMC. Type of assay: cell-based. The procedure: Human Peripheral Blood Mononuclear Cells (PBMC) were obtained from normal human donors. The B cell proliferation was induced by stimulation of the cells with the B cell mitogen Staphylococcus aureus Cowans I (SAC) plus Interleukin-2, either in the absence (positive proliferation control), or in the presence of test peptides—10 micrograms per ml—to examine their effects on the B cell response. 10^5/well PBMC were plated in 96-well microtiter plates and assayed in duplicate with the peptides. Cell cultures were incubated at 37° C. for 3 days in a 5% CO2 incubator and were thereafter pulsed with 1 microCi/well ^3H-thymidine for additional 12 hours of culture. At the end of incubation time, the plates were harvested and the cells counted by liquid scintillation for the incorporation of ^3H-thymidine as a measure of B cell proliferation.

The next assay has as its system Interferon-γ (IFN-γ). Briefly: Th1/Th2 cytokine profiling assay, IFN-γ. In kind it is cell-based, mouse. The note with it: 10 micrograms per ml; Ovalbumin-restimulated Balb/c spleen cells, 72 hours.
Text: as §1

The subject of assay [4] is hepatitis B virus (HBV) ayw strain. Description: HBV experimental assay system, secreted HBV DNA by TaqMan PCR in HepG2-2.2.15. In kind it is cell-based. As to conditions: 10 micrograms per ml, HepG2-2.2.15, 6 days. For orientation: Real-time PCR tracks product formation cycle by cycle.
In a further assay the test system is Interleukin-2 (IL-2). Briefly: Th1/Th2 cytokine profiling assay, IL-2. Type of assay: cell-based, mouse. The note with it: 10 micrograms per ml; Ovalbumin-restimulated Balb/c spleen cells, 72 hours.
Text: as §1

The next assay has as its system HUVEC. Briefly: Endothelial tube formation assay. Type of assay: cell-based, human. As to conditions: 10 micrograms per ml, 20 hours. The procedure:
The endothelial tube formation assay is based on the ability of endothelial cells to form three-dimensional capillary-like tubular structures when cultured on a gel of basement membrane extract. The endothelial tube formation assay represents a powerful model for studying inhibition and induction of angiogenesis. Pre-labeled HUVEC with Calcein AM were seeded in a 96-well culture plate coated with extracellular metrix (Chemicon international Cat. ECM625) and treated with test peptides—10 micrograms per ml—in full growth medium. Positive control was vehicle only. The endothelial cells were allowed to form tubes foe 20 hours and were then examined under an inverted fluorescent microscope. Duplicate wells for each treatment were photographed and quantitatively analyzed for an average tubule length using image analysis software ImageProPlus. Raw data were expressed as average tubule lengths in pixels ±standard deviation. Statistic p values were computed using the Student's t-test.

For the compound `Cc1cn([C@H]2C[C@H](N=[N+]=[N-])[C@@H](CO)O2)c(=O)[nH]c1=O` [AZT], the “antiviral activity of positive control compounds” value in the assay with HIV-1IIIB is recorded as “expected levels of antiviral activity”.
For the compound `Nc1nc(O)c2ncn(COC(CO)CO)c2n1` [Ganciclovir, reference compound], the “antiviral activity of positive control compound” value in the assay on HCMV strain AD169 (positive control, HCMV AD169) is “expected levels of antiviral activity”.
In the case of `CC(C)(C)NC(=O)[C@@H]1CN(Cc2cccnc2)CCN1C[C@@H](O)C[C@@H](Cc1ccccc1)C(=O)N[C@H]1c2ccccc2C[C@H]1O` [indinavir], the “antiviral activity of positive control compounds” value in the assay with HIV-1IIIB was “expected levels of antiviral activity”.
For the compound PS[Hyp]GDW-OH [peptide 1], the “IL-4 spleen cells; TH2 response (% of control)” value in the assay with Interleukin-4 (IL-4) is on record as 0.0 % of control. Also, the “TNF-a spleen cells; TH1 response (% of control)” value in [1] is given as 96.0 % of control. Moreover, in assay [2], the “inhibition of the migration of human endothelial cells” value is listed as 39%. In the assay on Interleukin-5 (IL-5), the “IL-5 spleen cells; TH2 response (% of control)” value is listed as 65.5 % of control. Besides, in assay [3], the “decrease of the proliferation of specifically stimulated human B-cells” value is listed as 20.9%. The “IFNγ spleen cells; TH1 response (% of control)” value with Interferon-γ (IFN-γ) is recorded as 63.7 % of control. In addition, the “inhibition of HCMV plaque formation compared to virus control” value with HCMV strain AD169 is recorded as “did not inhibit”. Further, the “inhibition of HBV replication on tested liver cells” value in [4] is “no effect”. For the same compound, in the assay with Interleukin-2 (IL-2), the “IL-2 spleen cells (% of control)” value is reported as 117.9 % of control. In addition, the “inhibition of the tube formation of human endothelial cells” value in the assay on HUVEC is recorded as “did not inhibit”.
Consider “Tyr-Gly-Gly-Phe-Met-Thr-Ser-Glu-Lys-Ser-Gln-Thr-Pro-Leu-Val-Thr-OH (YGGFMTSEKSQTPLVT-OH) [peptide 2, Alpha-Endorphin]”, for which, in the assay with Interleukin-4 (IL-4), the “IL-4 spleen cells; TH2 response (% of control)” value is 0.0 % of control. Further, in assay [1], the “TNF-a spleen cells; TH1 response (% of control)” value is recorded as 93.1 % of control. For the same compound, the “inhibition of the migration of human endothelial cells” value in assay [2] is reported as 31%. For the same compound, the “IL-5 spleen cells; TH2 response (% of control)” value in the assay with Interleukin-5 (IL-5) is reported as 53.0 % of control. For the same compound, the “decrease of the proliferation of specifically stimulated human B-cells” value in assay [3] stood at 12.0%. The “IFNγ spleen cells; TH1 response (% of control)” value with Interferon-γ (IFN-γ) is reported as 68.6 % of control. Moreover, the “inhibition of HCMV plaque formation compared to virus control” value in the assay with HCMV strain AD169 was “did not inhibit”. For the same compound, in assay [4], the “inhibition of HBV replication on tested liver cells” value is “no effect”. For the same compound, the “IL-2 spleen cells (% of control)” value in the assay with Interleukin-2 (IL-2) is reported as 0.0 % of control. Besides, the “inhibition of the tube formation of human endothelial cells” value with HUVEC is “did not inhibit”.

These data come from patent US20100190716A1, “USE OF A PLATELET FIBRINOGEN RECEPTOR HEXAPEPTIDE ANTAGONIST AND ALPHA-ENDORPHIN AS THERAPEUTIC AGENTS” (priority 2007, published 2010).
